# In publication PMC6268061, “Investigation of the Biological Properties of (Hetero)Aromatic Thiosemicarbazones” (Molecules, 2012):
# Where two headings read alike, the source gives them in different places.
# Legend:
# [1] = test system: Trichophyton mentagrophytes 445; test: In vitro antifungal susceptibility, broth microdilution; assay type: cell-based; settings: read-out: MIC (IC50) TM
# [2] = test system: Aspergillus fumigatus 231; test: as above; assay type: cell-based; settings: read-out: MIC (IC50) AF
# Candida tropicalis 156 = test: as above; assay type: cell-based; settings: read-out: MIC (IC80) CT
# [3] = test system: Trichosporon beigelii 1188; test: as above; assay type: cell-based; settings: read-out: MIC (IC80) TB
# In short: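 Twofold dilutions (500 to 0.975 μmol/L final) in RPMI 1640 with MOPS, pH 7.0, per CLSI broth microdilution. MIC taken as IC80 for yeasts (M27-A2) or IC50 for moulds (M38-A) versus drug-free control, read after 24 and 48 h static incubation at 35 °C.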
# Absidia corymbifera 272 = test: as above; assay type: cell-based; settings: read-out: MIC (IC50) AC
# [4] = Lipophilicity determination using RP-HPLC (capacity factor, log k); assay type: physicochemical; settings: C18, MeOH 55%/H2O 45%
# In short: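 Isocratic RP-HPLC on a C18 column (5 μm, 4.6 × 250 mm), 55% MeOH/45% water at 0.9 mL/min, 30 °C, UV detection 210 nm. Dead time from KI; capacity factor k = (tR − tD)/tD, with log k taken as the lipophilicity index on log P scale.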
# [5] = test system: Candida albicans ATCC 44859; test: In vitro antifungal susceptibility, broth microdilution; assay type: cell-based; settings: read-out: MIC (IC80) CA
# [6] = test system: photosynthetic electron transport (PET) in spinach chloroplasts; test: Inhibition of photosynthetic electron transport (PET) in spinach chloroplasts; assay type: biochemical, Spinacia oleracea L.; settings: DCPIP photoreduction
# In short: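 PET in spinach chloroplasts was followed spectrophotometrically as DCPIP photoreduction in pH 7.2 phosphate buffer with sucrose, MgCl2 and NaCl, at 30 mg/L chlorophyll, under halogen-lamp irradiation at 22 °C. Compounds were added in DMSO. IC50 is the molar concentration halving the rate relative to untreated control.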
# Candida krusei ATCC 6258 = test: In vitro antifungal susceptibility, broth microdilution; assay type: cell-based; settings: Pichia kudriavzevii, read-out: MIC (IC80) CK
# [7] = Trichophyton mentagrophytes, 445, 72 h
# [8] = Trichophyton mentagrophytes, 445, 120 h
# [9] = Aspergillus fumigatus, 231, 24 h
# [10] = Aspergillus fumigatus, 231, 48 h
# [11] = Trichosporon beigelii, 1188, 24 h
# [12] = Trichosporon beigelii, 1188, 48 h
# [13] = Lichtheimia corymbifera, 272, 24 h
# [14] = Lichtheimia corymbifera, 272, 48 h
Structure (SMILES),"IC50 [1, 7] [µM]","IC50 [1, 8] [µM]","IC50 [2, 9] [µM]","IC50 [2, 10] [µM]","MIC (Candida tropicalis 156; Candida tropicalis, 156, 24 h) [µM]","MIC (Candida tropicalis 156; Candida tropicalis, 156, 48 h) [µM]","MIC [3, 11] [µM]","MIC [3, 12] [µM]",IC50 (Absidia corymbifera 272; [13]) [µM],IC50 (Absidia corymbifera 272; [14]) [µM],log k [4],"MIC ([5]; ATCC44859, 24 h) [µM]","MIC ([5]; ATCC44859, 48 h) [µM]",IC50 [6] [µM],"MIC (Candida krusei ATCC 6258; ATCC6258, 24 h) [µM]","MIC (Candida krusei ATCC 6258; ATCC6258, 48 h) [µM]"
"CN(C)C(=S)N/N=C/c1ccc(Cl)c(Cl)c1 [Compound 3h, (E)-2-(3,4-Dichlorobenzylidene)-N,N-dimethylhydrazinecarbothioamide]",31.2,62.5,> 500,> 500,500,500,125,500,> 500,> 500,0.7555,15.6,31.2,329,500,500
"NC(=S)N/N=C/c1ccc(Br)cc1 [Compound 3k, (E)-2-(4-Bromobenzylidene)hydrazinecarbothioamide]",> 500,> 500,> 500,> 500,> 500,> 500,500,500,> 500,> 500,0.6580,500,500,586,> 500,> 500
"CN(C)C(=S)N/N=C/c1ccc(Br)cc1 [Compound 3m, (E)-2-(4-bromobenzylidene)-N,N-dimethylhydrazinecarbothioamide]",62.5,62.5,> 500,> 500,> 500,> 500,15.6,62.5,> 500,> 500,0.6784,62.5,250,595,> 500,> 500
